Laboratory results published in paper PMC10947015, “Constraining and Modifying Peptides Using Pd‐Mediated Cysteine Allylation” (Chembiochem, 2023).
Where two headings read alike, the source gives them in different places. Starred links: 1 amine or outer side, 2 acyl side, 3 side chain; linkers in the order of their positions; H or OH if unused. Positions of bridges follow the written chain, without caps; N, C: chain ends. Non-standard residues stand in square brackets, D forms with d. Residues, ends and D or L forms follow the SMILES beside them. Groups on a side chain read outwards from the residue. *: point of attachment. X1 = O=C(CCCC[C@@H]1SC[C@@H]2NC(=O)N[C@@H]21)NCCCOCCOCCOCCCN*; Tyr(3-NO2) = N[C@@H](Cc1ccc(O)c([N+](=O)[O-])c1)C(=O)O; Glutaryl = O=C(CCCC(=O)[*:2])[*:1]; Hyp = O=C(O)[C@@H]1C[C@@H](O)CN1; X2 = C(=C/C[*:2])/C[*:1]; X3 = C(#CC[*:2])C[*:1]

Target: T1, integrin α3β1 (Homo sapiens, UniProt P05556+P26006)
T1 construct: integrin α3β1 expressed on human MDA‐MB231 cells; endogenous in cells; host or cells: MDA-MB231 (human)
Assay: Binding of stapled peptides to integrin α3β1 on MDA-MB231 cells, flow cytometry with streptavidin-PerCP-Cy5.5 staining
Description: The obtained stapled peptides P1 a–g were tested for binding to integrin α3β1 expressed on human MDA‐MB231 cells (Figure S2). Upon incubation for 30 min with different concentrations of the stapled P1 a–g variants, streptavidin‐PerCP‐Cy5.5 was added after three washing steps to allow detection by flow cytometry. Peptide P2 (P1 in its disulfide cyclized form) served as a positive control, which bound with an apparent affinity of 100 nM.[23]
Binding of stapled peptides to murine 4T1 cells and human MDA-MB231 cells
Figure S2: Determination of Kd values for peptides P1a-h based on streptavidin-PerCP-Cy5.5 staining of integrin- containing cells incubated with different peptide concentrations. A: Peptides P1a-c in mouse 4T1 cells. B: P1a-c in human MDA-MB231 cells. C: Peptides P1d-h in human MDA-MB231 cells.
4T1 and MDA-MB231 cells were grown in culture according to the suppliers’ guidelines, and cells were detached by using trypsin/EDTA (PAN, diluted 1:2 with PBS). Resuspended cells in complete culture medium were centrifuged and washed once with washing buffer [HEPES (pH 7.3, 10 mM) in NaCl (0.9 %)] at 4°C and resuspended (2x10^6 cells mL-1) in peptide blocking buffer (PBB): HEPES (pH 7.3, 10 mM) in NaCl (0.9%) + KCl (5 mM), BSA (3%) + FCS (5 %) + MnCl2 (4 mM). Peptide samples were prepared at twice the final concentration in PBB and added to the cells to give final peptide concentrations of 1 nM - 3 µM. Cells (1x105 per 50 µL) were aliquoted into FACS tubes and incubated for 10 min on ice before addition of the peptide samples (50 µL). […]
PerCP-Cy5.5 (100 µL, Beckton Dickinson, 0.5 mg mL-1) in PBB. […] Cells were kept on ice until analysis with a FACS Canto instrument and 10000 events/sample were recorded. Data were evaluated with Flowing software. Gating was performed on single and live cells, and histograms of PerCP–Cy5.5 fluorescence were plotted. Kd values were calculated by fitting the data to a one-site specific binding model [Y=BmaxVX/(Kd+X)] by using GraphPad Prism, and errors represent the standard error of the fit.

[1] = Figure 2, integrin α3β1, flow cytometry binding, read-out: Kd

T1 sequence (P26006 33-872 limits assumed): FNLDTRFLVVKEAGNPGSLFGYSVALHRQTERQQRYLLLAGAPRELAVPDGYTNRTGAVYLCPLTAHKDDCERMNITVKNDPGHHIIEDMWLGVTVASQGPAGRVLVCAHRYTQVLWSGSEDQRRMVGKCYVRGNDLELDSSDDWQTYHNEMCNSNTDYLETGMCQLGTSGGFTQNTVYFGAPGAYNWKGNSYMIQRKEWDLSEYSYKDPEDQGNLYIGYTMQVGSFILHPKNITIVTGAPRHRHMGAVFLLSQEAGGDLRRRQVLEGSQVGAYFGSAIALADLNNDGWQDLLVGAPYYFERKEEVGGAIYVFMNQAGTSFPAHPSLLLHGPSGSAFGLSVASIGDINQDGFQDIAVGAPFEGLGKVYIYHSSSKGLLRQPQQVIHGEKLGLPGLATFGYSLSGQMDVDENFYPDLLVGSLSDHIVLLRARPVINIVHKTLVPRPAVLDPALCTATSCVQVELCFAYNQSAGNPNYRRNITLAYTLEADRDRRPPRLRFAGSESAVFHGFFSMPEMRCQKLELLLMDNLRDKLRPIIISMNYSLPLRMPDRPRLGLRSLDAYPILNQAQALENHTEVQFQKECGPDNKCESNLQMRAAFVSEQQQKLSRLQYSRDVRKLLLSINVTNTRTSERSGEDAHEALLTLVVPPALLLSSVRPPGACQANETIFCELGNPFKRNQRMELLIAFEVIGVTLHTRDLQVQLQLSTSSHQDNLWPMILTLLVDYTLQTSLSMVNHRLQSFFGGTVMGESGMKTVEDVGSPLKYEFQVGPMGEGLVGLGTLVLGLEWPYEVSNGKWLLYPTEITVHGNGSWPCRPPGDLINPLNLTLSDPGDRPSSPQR
T1 sequence (P26006 878-1051 limits assumed): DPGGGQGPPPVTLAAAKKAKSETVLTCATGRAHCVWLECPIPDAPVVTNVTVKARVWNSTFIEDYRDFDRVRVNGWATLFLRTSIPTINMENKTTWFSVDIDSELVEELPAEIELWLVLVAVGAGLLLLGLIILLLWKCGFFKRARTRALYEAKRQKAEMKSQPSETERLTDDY
T1 sequence (P05556 21-798): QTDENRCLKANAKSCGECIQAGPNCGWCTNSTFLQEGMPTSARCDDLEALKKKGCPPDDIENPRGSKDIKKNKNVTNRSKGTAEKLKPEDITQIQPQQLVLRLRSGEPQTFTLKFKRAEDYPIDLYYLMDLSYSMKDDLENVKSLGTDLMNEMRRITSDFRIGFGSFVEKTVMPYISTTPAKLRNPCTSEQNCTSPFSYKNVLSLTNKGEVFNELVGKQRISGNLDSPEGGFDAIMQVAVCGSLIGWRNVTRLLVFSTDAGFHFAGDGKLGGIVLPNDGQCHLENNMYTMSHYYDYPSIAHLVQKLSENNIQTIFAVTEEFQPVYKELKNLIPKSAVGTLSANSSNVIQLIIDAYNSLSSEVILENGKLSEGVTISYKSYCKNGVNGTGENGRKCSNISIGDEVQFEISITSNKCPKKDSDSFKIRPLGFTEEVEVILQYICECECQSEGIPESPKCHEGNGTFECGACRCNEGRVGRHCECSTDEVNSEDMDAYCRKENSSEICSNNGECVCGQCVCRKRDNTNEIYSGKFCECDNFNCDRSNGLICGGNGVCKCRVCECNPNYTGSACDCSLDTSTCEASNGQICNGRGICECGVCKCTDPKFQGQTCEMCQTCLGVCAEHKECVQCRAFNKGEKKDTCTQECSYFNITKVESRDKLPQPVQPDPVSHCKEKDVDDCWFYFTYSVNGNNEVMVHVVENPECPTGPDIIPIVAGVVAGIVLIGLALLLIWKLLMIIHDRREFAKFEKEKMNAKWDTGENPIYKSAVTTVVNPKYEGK

SMILES	Kd (integrin α3β1 expressed on human MDA-MB231 cells, 30 min incubation on ice, streptavidin-PerCP-Cy5.5, flow cytometry, one-site specific binding fit, read-out: binding affinity)	Kd [1]
NC(=O)C[C@@H]1NC(=O)[C@@H]2C[C@@H](O)CN2C(=O)CNC(=O)[C@H](Cc2ccc(O)c([N+](=O)[O-])c2)NC(=O)CNC(=O)[C@@H](CC(=O)O)NC(=O)[C@H](N)CSCC#CCSC[C@H](C(=O)NCC(=O)NCC(=O)N[C@@H](CCCCNC(=O)CCCC(=O)NCCCOCCOCCOCCCNC(=O)CCCC[C@@H]2SC[C@@H]3NC(=O)N[C@@H]32)C(N)=O)NC1=O [P1 d] (H-[dC][dD]G[Tyr(3-NO2)]G[Hyp]N[dC]GGK([Glutaryl-X1])-NH2; linker 1-8 via X3)	~10 µM	–
NC(=O)C[C@@H]1NC(=O)[C@@H]2C[C@@H](O)CN2C(=O)CNC(=O)[C@H](Cc2ccc(O)c([N+](=O)[O-])c2)NC(=O)CNC(=O)[C@@H](CC(=O)O)NC(=O)[C@H](N)CSC/C=C\CSC[C@H](C(=O)NCC(=O)NCC(=O)N[C@@H](CCCCNC(=O)CCCC(=O)NCCCOCCOCCOCCCNC(=O)CCCC[C@@H]2SC[C@@H]3NC(=O)N[C@@H]32)C(N)=O)NC1=O [P1 a] (H-[dC][dD]G[Tyr(3-NO2)]G[Hyp]N[dC]GGK([Glutaryl-X1])-NH2; linker 1-8 via X2)	–	13 µM
NC(=O)C[C@@H]1NC(=O)[C@@H]2C[C@@H](O)CN2C(=O)CNC(=O)[C@H](Cc2ccc(O)c([N+](=O)[O-])c2)NC(=O)CNC(=O)[C@@H](CC(=O)O)NC(=O)[C@H](N)CSSC[C@H](C(=O)NCC(=O)NCC(=O)N[C@@H](CCCCNC(=O)CCCC(=O)NCCCOCCOCCOCCCNC(=O)CCCC[C@@H]2SC[C@@H]3NC(=O)N[C@@H]32)C(N)=O)NC1=O [Peptide P2, reference compound] (H-[dC][dD]G[Tyr(3-NO2)]G[Hyp]N[dC]GGK([Glutaryl-X1])-NH2; disulfide 1-8)	–	0.1 µM
